Experiments:
[1] = tested on: microorganisms with acquired resistance; test: microbe, parasite or virus in culture; format: cell-based; conditions: for Peptide MIC: in µg/mL
[2] = tested on: inherently resistant microorganisms; test: microbe, parasite or virus in culture; format: cell-based

KWKSFIKKLTSAAKKVVTTAKPLISS [MBI 26]
>128 µg/mL: Peptide MIC Alone ([1]; S. maltophilia SMA027, Tobramycin section) | Peptide MIC Alone ([1]; S. marcescens 1, Piperacillin section)
64 µg/mL: Peptide MIC + Tobramycin ([1]; S. maltophilia SMA027) | MBI 26 MIC Alone ([2]; E. gallinarum 97047 VanC) | MBI 26 MIC Alone ([2]; E. gallinarum 97049 VanC) | MBI 26 MIC Alone ([2]; K. pneumoniae KP002) | MBI 26 MIC Alone ([2]; P. aeruginosa PA041)
0.26: FIC ([1]; peptide + Piperacillin, S. maltophilia 35)
32 µg/mL: Peptide MIC + Piperacillin ([1]; S. maltophilia 41) | MBI 26 MIC Alone ([2]; E. casseliflavus 97059 VanC) | MBI 26 MIC + Erythro. ([2]; K. pneumoniae KP002) | MBI 26 MIC + Erythro. ([2]; P. aeruginosa PA041) | Peptide MIC Alone ([2]; S. aureus MRSA, Piperacillin section)
8 µg/mL: Peptide MIC + Tobramycin ([1]; S. epidermidis SE071) | Peptide MIC + Piperacillin ([1]; S. maltophilia 4) | Peptide MIC + Ciprofloxacin ([1]; S. maltophilia 34) | Peptide MIC + Gentamicin ([1]; S. maltophilia SMA017) | MBI 26 MIC + Erythro. ([2]; A. calcoaceticus AC001) | MBI 26 MIC Alone ([2]; E. casseliflavus 97056 VanC) | MBI 26 MIC Alone ([2]; E. gallinarum 97044 VanC) | MBI 26 MIC + Vancomycin ([2]; E. gallinarum 97047 VanC) | MBI 26 MIC + Erythro. ([2]; K. pneumoniae KP001) | Peptide MIC Alone ([2]; S. maltophilia, Ceftriaxone section)
32: Peptide MIC ([1]; S. maltophilia, combination with Piperacillin)
0.50: FIC ([1]; peptide + Ceftriaxone, B. cepacia BC003) | FIC ([1]; peptide + Ciprofloxacin, P. aeruginosa PA41) | FIC ([1]; peptide + Ciprofloxacin, S. maltophilia 35) | FIC ([1]; peptide + Piperacillin, A. calcoaceticus 2) | FIC ([1]; peptide + Tobramycin, S. epidermidis SE071) | FIC ([1]; peptide + Tobramycin, S. maltophilia SMA027) | FIC ([2]; peptide + Mupirocin, E. coli)
1 µg/mL: Gentamicin MIC + Peptide ([1]; S. maltophilia SMA017) | MBI 26 MIC + Vancomycin ([2]; E. casseliflavus 97056 VanC) | Peptide MIC + Mupirocin ([2]; E. coli)
2: Peptide MIC ([1]; S. epidermidis, combination with Clindamycin) | Peptide MIC ([1]; S. haemolyticus, combination with Methicillin)
>32 µg/mL: Peptide MIC Alone ([1]; S. maltophilia 34, Ciprofloxacin section) | Peptide MIC Alone ([1]; S. maltophilia 35, Ciprofloxacin section) | Peptide MIC Alone ([1]; S. maltophilia 35, Piperacillin section) | Peptide MIC Alone ([1]; S. maltophilia 41, Piperacillin section)
0.5 µg/mL: Peptide MIC + Tobramycin ([1]; S. epidermidis SE068) | Ciprofloxacin MIC + Peptide ([1]; S. maltophilia 35) | MBI 26 MIC + Vancomycin ([2]; E. casseliflavus 97057 VanC) | MBI 26 MIC + Vancomycin ([2]; E. casseliflavus 97059 VanC) | MBI 26 MIC Alone ([2]; E. casseliflavus 97060 VanC) | MBI 26 MIC + Vancomycin ([2]; E. gallinarum 97044 VanC)
16 µg/mL: Peptide MIC Alone ([1]; S. epidermidis SE071, Tobramycin section) | Piperacillin MIC + Peptide ([1]; S. maltophilia 2) | Piperacillin MIC + Peptide ([1]; S. maltophilia 4) | Peptide MIC Alone ([1]; S. maltophilia 4, Piperacillin section) | Peptide MIC + Ciprofloxacin ([1]; S. maltophilia 35) | Peptide MIC + Piperacillin ([1]; S. maltophilia 35) | Piperacillin MIC + Peptide ([1]; S. maltophilia 41) | Peptide MIC Alone ([1]; S. maltophilia SMA017, Gentamicin section) | Peptide MIC + Piperacillin ([1]; S. marcescens 1) | MBI 26 MIC Alone ([2]; A. calcoaceticus AC001) | MBI 26 MIC + Vancomycin ([2]; E. gallinarum 97049 VanC) | MBI 26 MIC Alone ([2]; K. pneumoniae KP001)
0.19: FIC ([1]; peptide + Ceftriaxone, E. cloacae ECL015) | FIC ([1]; peptide + Piperacillin, H. influenzae 1) | FIC ([1]; peptide + Piperacillin, H. influenzae 2) | FIC ([2]; peptide + Amikacin, S. maltophilia)
4 µg/mL: Tobramycin MIC + Peptide ([1]; S. epidermidis SE068) | Peptide MIC Alone ([1]; S. maltophilia 2, Piperacillin section) | Piperacillin MIC + Peptide ([1]; S. maltophilia 35) | Peptide MIC Alone ([1]; S. maltophilia SMA019, Gentamicin section) | Tobramycin MIC + Peptide ([1]; S. maltophilia SMA027) | MBI 26 MIC Alone ([2]; E. casseliflavus 97058 VanC) | MBI 26 MIC + Vancomycin ([2]; E. gallinarum 97046 VanC) | Peptide MIC + Piperacillin ([2]; S. aureus MRSA)
0.25: FIC ([1]; peptide + Ciprofloxacin, S. maltophilia 34) | FIC ([1]; peptide + Piperacillin, A. calcoaceticus 7) | FIC ([1]; peptide + Piperacillin, P. aeruginosa 7) | FIC ([2]; peptide + Ceftriaxone, S. maltophilia)
2 µg/mL: Peptide MIC Alone ([1]; S. epidermidis SE068, Tobramycin section) | Peptide MIC + Piperacillin ([1]; S. maltophilia 2) | Gentamicin MIC + Peptide ([1]; S. maltophilia SMA019) | Peptide MIC + Gentamicin ([1]; S. maltophilia SMA019) | Piperacillin MIC + Peptide ([1]; S. marcescens 1) | MBI 26 MIC Alone ([2]; E. casseliflavus 97057 VanC) | Peptide MIC Alone ([2]; E. coli, Mupirocin section) | MBI 26 MIC Alone ([2]; E. gallinarum 97046 VanC) | MBI 26 MIC + Vancomycin ([2]; E. gallinarum 97048 VanC) | MBI 26 MIC Alone ([2]; E. gallinarum 97048 VanC) | Peptide MIC + Ceftriaxone ([2]; S. maltophilia)
0.63: FIC ([1]; peptide + Piperacillin, S. maltophilia 4)
0.53: FIC ([1]; peptide + Ceftriaxone, A. baumannii ABI005) | FIC ([1]; peptide + Gentamicin, A. baumannii ABI002) | FIC ([1]; peptide + Gentamicin, S. maltophilia SMA019)
1: Peptide MIC ([1]; S. haemolyticus, combination with Clindamycin)
0.56: FIC ([1]; peptide + Ceftriaxone, A. baumannii ABI006) | FIC ([1]; peptide + Ciprofloxacin, P. aeruginosa PA77) | FIC ([1]; peptide + Gentamicin, A. baumannii ABI001) | FIC ([1]; peptide + Piperacillin, P. aeruginosa 26)
0.27: FIC ([1]; peptide + Ciprofloxacin, P. aeruginosa 31) | FIC ([1]; peptide + Piperacillin, P. aeruginosa 23) | FIC ([1]; peptide + Tobramycin, S. epidermidis SE068)
0.52: FIC ([1]; peptide + Gentamicin, S. maltophilia SMA017) | FIC ([1]; peptide + Piperacillin, S. maltophilia 41)
0.16: FIC ([1]; peptide + Piperacillin, E. cloacae 13)
0.09: FIC ([1]; peptide + Ciprofloxacin, P. aeruginosa 30) | FIC ([1]; peptide + Piperacillin, S. marcescens 1)
0.31: FIC ([1]; peptide + Piperacillin, E. cloacae 19)
0.25 µg/mL: Ciprofloxacin MIC + Peptide ([1]; S. maltophilia 34) | MBI 26 MIC + Vancomycin ([2]; E. casseliflavus 97058 VanC) | MBI 26 MIC + Vancomycin ([2]; E. casseliflavus 97060 VanC)
0.38: FIC ([1]; peptide + Ciprofloxacin, A. calcoaceticus 5) | FIC ([1]; peptide + Ciprofloxacin, E. cloacae 16) | FIC ([1]; peptide + Ciprofloxacin, E. cloacae 17)
0.75: FIC ([1]; peptide + Gentamicin, P. aeruginosa PA023) | FIC ([1]; peptide + Gentamicin, P. aeruginosa PA041) | FIC ([1]; peptide + Piperacillin, S. maltophilia 2) | FIC ([1]; peptide + Tobramycin, P. aeruginosa PA031)
128 µg/mL: Peptide MIC Alone ([2]; P. aeruginosa, Ceftriaxone section)
0.125 µg/mL: Tobramycin MIC + Peptide ([1]; S. epidermidis SE071)
0.13: FIC ([2]; peptide + Piperacillin, S. aureus MRSA)

From US20020035061A1, “COMPOSITIONS AND METHODS FOR TREATING INFECTIONS USING CATIONIC PEPTIDES ALONE OR IN COMBINATION WITH ANTIBIOTICS” (priority 1996, published 2002)
